From patent US10323026B2, “Heterocyclic compound” (Takeda Pharmaceutical Company Limited, priority 2016, dated 2019) come the findings set out here.

For data set [1], the system named is intracerebral 2-AG and arachidonic acid. As to the kind of experiment: Measurement of intracerebral 2-AG and arachidonic acid concentrations. It counts as in vivo, mouse (C57BL/6J). The conditions noted are these: for 2-AG concentration / arachidonic acid concentration: cerebrum of male C57BL/6J mice, 3 mg/kg body weight by gavage, isolated 1 hour after administration; for 2-AG concentration: control 9.9; for arachidonic acid concentration: control 163.5; for migration into brain / intracerebral 2-AG concentration compared to control / intracerebral arachidonic acid concentration compared to control: oral administration to C57BL/6J mice; for intracerebral 2-AG concentration compared to control / intracerebral arachidonic acid concentration compared to control: result in words. As to the method:
As the mouse, 8-week-old male C57BL/6J mice (CLEA Japan, Inc.) were used (6 mice/group). Administration solutions were prepared by suspending the test compounds (compound 1 (compound of Example 6), compound 2 (compound of Example 93) and compound 3 (compound of Example 97)) in 0.5% methylcellulose solution (Wako Pure Chemical Industries, Ltd.). The dose of the test compound was prepared to be 3 mg/kg body weight/10 mL. The test compounds were administered by gavage at 3 mg/kg body weight. The cerebrum was isolated after the administration of the test compound (isolation time after the administration of the test compound is shown in Table 3), and the cerebrum hemisphere was extracted. The obtained cerebrum hemisphere was frozen on dry ice, and the frozen tissue weight was measured.
The cerebral tissue weight was measured, and cerebral tissue was homogenized with 4-fold (v/w) of isopropanol (IPA), and double diluted with IPA. To the diluted sample (200 μL) was added internal standard solution (5 μL) ([5,6,8,9,11,12,14,15-D8]-(5Z,8Z,11Z,14Z)5,8,11,14-eicosatetraenoic acid (AA-d8, 0.5 nmol/mL IPA) and [5,6,8,9,11,12,14,15-D8]-(5Z,8Z,11Z,14Z)-5,8,11,14-eicosatetraenoyl-2-glycerol ester (2-AG-d8, 0.5 nmol/mL IPA)), and the mixture was centrifuged at 15000 rpm for 5 min. The supernatant was injected to liquid chromatographymass spectrometer to perform quantitative analysis.
For liquid chromatography, Shimadzu LC20A system (Shimadzu Corporation) was used. The separation was performed by gradient elution method with mobile phase A (10 mmol/L HCOONH4/HCOOH (100:0.2, v/v)) and mobile phase B (ethanol/IPA (3:2, v/v)) using Shim-pack XR-ODS (2.2 μm, 2.0×30 mm, Shimadzu Corporation) at column temperature of 50° C., at flow rate of 0.5 mL/min. The gradient conditions are as follows: 0-1 min, 1% B; 1-1.2 min, 1-55% B; 1.2-2.7 min, 55-75% B; 2.7-3.5 min, 75-99% B; 3.5-6 min, 99% B; 6-8 min, 1% B.
For mass spectrometer, API5000 (AB SCIEX) was used. The eluate from the liquid chromatography was directly ionized by turbospray ionization method, where (5Z,8Z,11Z,14Z)5,8,11,14-eicosatetraenoic acid (AA) and AA-d8 were measured by negative ionization mode, and (5Z,8Z,11Z,14Z)5,8,11,14-eicosatetraenoyl-2-glycerol ester (2-AG) and 2-AG-d8 were measured by positive ionization mode.
A solution for calibration curve was prepared to the concentration of 2, 5, 10, 20, 50, 100, 200, 500, 1000 nmol/mL of acetonitrile. These solutions (10 μL) was mixed with 200 μL of IPA and 5 μL of internal standard solution, and the mixture was centrifuged at 15000 rpm for 5 min, and the supernatant was injected to liquid chromatography mass spectrometer to perform analysis. The calibration curve was drawn by regression line with a weighting of 1/x^2, and the quantitativity was confirmed by accuracy of 100±20% and R^2>0.99.

For data set [2], the target named is T1, His-hMAGL (recombinant polyhistidine tagged human MAGL protein) (Homo sapiens, UniProt Q99685).
T1 construct: polyhistidine (His) (N); made in house; host or cells: E. coli BL21(DE3)
T1 sequence (Q99685 1-303): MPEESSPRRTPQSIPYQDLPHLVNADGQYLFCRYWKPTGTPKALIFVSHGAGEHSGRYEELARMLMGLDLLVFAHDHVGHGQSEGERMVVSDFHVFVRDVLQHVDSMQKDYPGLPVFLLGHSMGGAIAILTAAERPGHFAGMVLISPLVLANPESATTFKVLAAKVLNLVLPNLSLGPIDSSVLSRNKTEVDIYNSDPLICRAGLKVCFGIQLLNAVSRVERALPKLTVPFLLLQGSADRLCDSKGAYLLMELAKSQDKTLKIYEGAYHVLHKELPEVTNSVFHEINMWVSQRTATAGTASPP
As to the kind of experiment: Measurement of MAGL inhibitory activity (RapidFire-mass spectrometry of arachidonic acid produced from 2-arachidonylglycerol). The format is biochemical. The settings on record: read-out: % inhibition (10 μM). The method in brief: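 After quenching with acetonitrile containing 3 μM arachidonic acid-d8, the arachidonic acid formed was measured by online SPE RapidFire-MS/MS in negative SRM mode and corrected against the d8 standard. Inhibition (%) was calculated relative to compound-free and enzyme-free groups.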

Setting [3] is: test compound 10 μM, His-hMAGL, substrate 2-arachidonylglycerol, 60 min preincubation.

Each structure is given as a SMILES string. Where two headings read alike, the source gives them in different places.

Broadly, the inhibition is the share of the control response that was lost under treatment. For the compound `Cc1ccc(COC2CN(C(=O)[C@H]3C[C@]4(COC(=O)N4)C3)C2)cc1Cl` [Example 97, (2s,4s)-2-((3-((3-chloro-4-methylbenzyl)oxy)azetidin-1-yl)carbonyl)-7-oxa-5-azaspiro[3.4]octan-6-one], in data set [1], the 2-AG concentration stood at 131.9 nmol/g, the arachidonic acid concentration was 60.9 nmol/g, the migration into brain result is on record as “migrated into brain” and the “intracerebral 2-AG concentration compared to control” value is “increased significantly”. In addition, in data set [1], the “intracerebral arachidonic acid concentration compared to control” value is reported as “decreased significantly”. In addition, the inhibition at 10 µM in data set [2] was found to be 100%.
`O=C1N[C@]2(CO1)C[C@H](C(=O)N1CC(OCc3ccc(C(F)(F)F)cc3F)C1)C2` [Example 6, (2s,4s)-2-((3-((2-fluoro-4-(trifluoromethyl)benzyl)oxy)azetidin-1-yl)carbonyl)-7-oxa-5-azaspiro[3.4]octan-6-one]: in data set [1], the 2-AG concentration turned out to be 124.5 nmol/g, the arachidonic acid concentration was 31.7 nmol/g, the migration into brain result was “migrated into brain” and the “intracerebral 2-AG concentration compared to control” value is reported as “increased significantly”. Moreover, the “intracerebral arachidonic acid concentration compared to control” value in data set [1] was “decreased significantly”. For the same compound, in data set [2] (setting [3]), the inhibition at 10 µM stood at 100%.
As to `Cc1cc(C(F)(F)F)ccc1COC1CN(C(=O)[C@H]2C[C@]3(COC(=O)N3)C2)C1` [Example 93, (2s,4s)-2-((3-((2-methyl-4-(trifluoromethyl)benzyl)oxy)azetidin-1-yl)carbonyl)-7-oxa-5-azaspiro[3.4]octan-6-one], in data set [1], the 2-AG concentration is 125.2 nmol/g, the arachidonic acid concentration is reported as 42.6 nmol/g, the migration into brain result is on record as “migrated into brain” and the “intracerebral 2-AG concentration compared to control” value is “increased significantly”. In data set [1], the “intracerebral arachidonic acid concentration compared to control” value was “decreased significantly”. The inhibition at 10 µM in data set [2] (setting [3]) is 100%.
